Experimental data as given in patent US12583870B2, “Azaheteroaryl compound and application thereof” (SHANGHAI BLUERAY BIOPHARMA CO., LTD., priority 2019, dated 2026).

Key:
[1] = target: T1, EED protein (His6-tagged full-length) binding to H3K27me3 polypeptide (Homo sapiens, UniProt O75530); experiment: AlphaScreen evaluation of blocking the binding of EED to H3K27Me3; details: EED 60 nM, biotinylated H3K27me3 75 nM, 30 minutes incubation
T1 construct: His6-tagged full-length EED protein (441 amino acids)
Protocol: Firstly, compound solutions of different concentration gradients were prepared. Compound powder was dissolved in DMSO to prepare a mother liquor. 1.5 μl of the mother liquor of the compound was taken and added into 198.5 μl of a reaction buffer (25 mM HEPES (pH 8.0), 50 mM NaCl, 0.015% Tween 20, 0.5% BSA). The mixture was mixed uniformly. Then a 3-fold series dilution was carried out with the above-mentioned buffer containing 0.75% DMSO. 9 different test concentrations were provided for one same compound. 5 μL of compounds of different concentration gradients were taken and added into the ProxiPlate-384 Plus, White detection plate (PerkinElmer, 6008280) and two replicates in parallel were provided for each concentration gradient.
Secondly, a reaction for blocking the binding was carried out. The above-mentioned buffer was used to dilute His6-tagged full-length EED protein (441 amino acids) to 60 nM and biotinylated polypeptide fragment H3K27me3 (amino acids at positions 19-33) (Biotinylated-H3K27me3) to 75 nM. 5 μl of the polypeptide fragment at the concentration of 75 nM and 5 µl of the protein at the concentration of 60 nM were transferred to the detection wells containing the compound, respectively. The detection plate was sealed with the film and incubation was carried out at room temperature for 30 minutes.
Finally, the detection was carried out with the AlphaScreen method. Prior use, nickel chelate receptor beads and streptavidin donor beads (at the ratio of 1:1, Perkin Elmer, product number 6760619M) were mixed with the above-mentioned reaction buffer. Then 5 μl of the above-mentioned pre-mixed detection solution was added to each of the detection wells. The donor beads and receptor beads were both at a final concentration of 5 μg/mL. The detection plate was covered and sealed with tinfoil and placed in the dark at room temperature for 1 hour. The signal was read using the AlphaScreen detector on the Spectra max i3. AlphaScreen signals were standardlized based on the readings obtained from positive controls (maximum signal controls) and negative controls (minimum signal controls) to give the inhibition rates for compounds at different concentrations, and afterwards non-linear regression analysis was carried out using GraphPad Prism 5, inhibition curves were made based on the Dose-Response equation of Y=Bottom+(Top−Bottom)/(1+10^((Log IC50−X)*HillSlope)) and the IC50 values of each compound were obtained. […]

[2] = tested on: trimethylation level of histone H3K27 in G401 cells; experiment: ELISA (H3K27 trimethylation) analysis in G401 cells; format: cell-based; details: Homo sapiens, G-401, 72 hours, H3K27me3 standardized to H3
Procedure, shortened: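 Cells exposed 72 h to 10-point 3-fold dilutions, top 10 μM, 0.5% final DMSO. Acid-extracted histones assayed by ELISA (ECL) for H3K27me3, normalized to total H3 and to DMSO control; IC50 from dose-response fit.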

KARPAS-422 cells = experiment: Cell proliferation analysis, KARPAS-422, 13 days, CellTiter-Glo; format: cell-based; details: Homo sapiens, 312 h
Procedure, shortened: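 KARPAS-422 cells were treated with PRC2 inhibitors over 9 three-fold dilutions from 10 μM top (0.5% DMSO, duplicates) in RPMI-1640 with 15% FBS at 37 °C. Every 3–4 days cells were counted and reseeded at 1×10^4/well with fresh compound. Viability was read by CellTiter-Glo luminescence on day 13.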

T1 sequence (O75530 whole entry): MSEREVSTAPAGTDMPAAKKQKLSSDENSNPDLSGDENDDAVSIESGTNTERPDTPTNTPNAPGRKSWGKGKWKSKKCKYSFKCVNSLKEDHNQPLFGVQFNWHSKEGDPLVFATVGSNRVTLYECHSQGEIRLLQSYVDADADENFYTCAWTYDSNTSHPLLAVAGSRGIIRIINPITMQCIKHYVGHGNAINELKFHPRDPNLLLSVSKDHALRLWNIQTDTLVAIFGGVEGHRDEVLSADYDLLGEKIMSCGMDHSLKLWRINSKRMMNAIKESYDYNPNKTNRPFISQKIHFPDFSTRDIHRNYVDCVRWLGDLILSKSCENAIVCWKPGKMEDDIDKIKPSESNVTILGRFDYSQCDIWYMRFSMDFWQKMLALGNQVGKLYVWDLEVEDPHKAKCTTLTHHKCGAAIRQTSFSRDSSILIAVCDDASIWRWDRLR

Row | IC50 [1] | IC50 [2] | IC50 (KARPAS-422 cells) | Structure (SMILES)
1 | 0.0086 µM | 0.0013 µM | 0.0016 µM | Cn1cnc2c(-c3cnc(NCc4c(F)ccc5c4CCO5)n4cnnc34)cccc21 [N-((5-fluoro-2,3-dihydrobenzofuran-4-yl)methyl)-8-(1-methyl-1H-benzo[d]imidazol-4-yl)-[1,2,4]triazolo[4,3-c]pyrimidin-5-amine]
2 | 0.0424 µM | 0.058 µM | 0.0941 µM | Fc1ccc2c(c1CNc1ncc(-c3ccc4nccn4c3)c3nncn13)CCO2 [N-((5-fluoro-2,3-dihydrobenzofuran-4-yl)methyl)-8-(imidazo[1,2-a]pyridin-6-yl)-[1,2,4]triazolo[4,3-c]pyrimidin-5-amine]
3 | 0.004 µM | 0.0007 µM | 0.0019 µM | Fc1ccc2c(c1CNc1ncc(-c3cccn4ncnc34)c3nncn13)[C@H]1C[C@H]1O2 [8-([1,2,4]triazolo[1,5-a]pyridin-8-yl)-N-(((1aR,6bR)-5-fluoro-1a,6b-dihydro-1H-cyclopropa[b]benzofuran-6-yl)methyl)-[1,2,4]triazolo[4,3-c]pyrimidin-5-amine]
4 | 0.0023 µM | 0.0171 µM | 0.0095 µM | Fc1cc(-c2cnc(NCc3c(F)ccc4c3CCO4)n3cnnc23)c2nc(C(F)(F)F)cn2c1 [N-((5-fluoro-2,3-dihydrobenzofuran-4-yl)methyl)-8-(6-fluoro-2-(trifluoromethyl)imidazo[1,2-a]pyridin-8-yl)-[11,2,4]triazolo[4,3-c]pyrimidin-5-amine]
5 | 0.0122 µM | 0.0036 µM | 0.0042 µM | CC1=Cc2c(-c3cnc(NCc4c(F)ccc5c4CCO5)n4cnnc34)cccc2S1(=O)=O [4-(5-(((5-fluoro-2,3-dihydrobenzofuran-4-yl)methyl)amino)-[1,2,4]triazolo[4,3-c]pyrimidin-8-yl)-2-methylbenzo[b]thiophene 1,1-dioxide]
6 | 0.0035 µM | 0.0024 µM | 0.0017 µM | Fc1ccc2c(c1CNc1ncc(-c3cccn4cc(C(F)(F)F)nc34)c3nncn13)CCO2 [N-((5-fluoro-2,3-dihydrobenzofuran-4-yl)methyl)-8-(2-(trifluoromethyl)imidazo[1,2-a]pyridin-8-yl)-[1,2,4]triazolo[4,3-c]pyrimidin-5-amine]
7 | 0.0042 µM | 0.0064 µM | 0.0431 µM | Fc1ccc2c(c1CNc1ncc(-c3ccc4nncn4c3)c3nncn13)[C@H]1C[C@H]1O2 [8-([1,2,4]triazolo[4,3-a]pyridin-6-yl)-N-(((1aR,6bR)-5-fluoro-1a,6b-dihydro-1H-cyclopropa[b]benzofuran-6-yl)methyl)-[1,2,4]triazolo[4,3-c]pyrimidin-5-amine]
8 | 0.0044 µM | 0.0085 µM | 0.042 µM | Fc1ccc2c(c1CNc1ncc(-c3cc(Cl)cn4ccnc34)c3nncn13)CCO2 [8-(6-chloroimidazo[1,2-a]pyridin-8-yl)-N-((5-fluoro-2,3-dihydrobenzofuran-4-yl)methyl)-[1,2,4]triazolo[4,3-c]pyrimidin-5-amine]
9 | 0.0058 µM | 0.0013 µM | 0.0013 µM | Cc1ccc(-c2cnc(NCc3c(F)ccc4c3CCO4)n3cnnc23)c2nccn12 [N-((5-fluoro-2,3-dihydrobenzofuran-4-yl)methyl)-8-(5-methylimidazo[1,2-a]pyridin-8-yl)-[1,2,4]triazolo[4,3-c]pyrimidin-5-amine]
10 | 0.0012 µM | 0.0045 µM | 0.0036 µM | Fc1ccc2c(c1CNc1ncc(-c3cccn4c(Cc5ccccc5)cnc34)c3nncn13)CCO2 [8-(3-phenylmethylimidazo[1,2-a]pyridin-8-yl)-N-((5-fluoro-2,3-dihydrobenzofuran-4-yl)methyl)-[1,2,4]triazolo[4,3-c]pyrimidin-5-amine]
11 | 0.0047 µM | 0.0032 µM | 0.0035 µM | N#Cc1cnc2c(-c3cnc(NCc4c(F)ccc5c4CCO5)n4cnnc34)cccn12 [8-(5-(((5-fluoro-2,3-dihydrobenzofuran-4-yl)methyl)amino)-[1,2,4]triazolo[4,3-c]pyrimidin-8-yl)imidazo[1,2-a]pyridine-3-carbonitrile]
12 | 0.0118 µM | 0.003 µM | 0.0032 µM | Cc1ccc(-c2cnc(NCc3c(F)ccc4c3CCO4)n3cnnc23)c2ncc(CC(N)=O)n12 [2-(8-(5-(((5-fluoro-2,3-dihydrobenzofuran-4-yl)methyl)amino)-[1,2,4]triazolo[4,3-c]pyrimidin-8-yl)-5-methylimidazo[1,2-a]pyridin-3-yl)acetamide]
13 | 0.0064 µM | 0.002 µM | 0.0016 µM | O=S1(=O)C=c2ccc(-c3cnc(NCc4c(F)ccc5c4CCCO5)n4cnnc34)cc2=C1 [5-(5-(((6-fluorochroman-5-yl)methyl)amino)-[1,2,4]triazolo[4,3-c]pyrimidin-8-yl)benzo[c]thiophene 2,2-dioxide]
14 | 0.0051 µM | 0.0027 µM | 0.0019 µM | Cc1ccc(-c2cnc(NCc3c(F)ccc4c3CCO4)n3cnnc23)c2ncc(C)n12 [8-(3,5-dimethylimidazo[1,2-a]pyridin-8-yl)-N-((5-fluoro-2,3-dihydrobenzofuran-4-yl)methyl)-[1,2,4]triazolo[4,3-c]pyrimidin-5-amine]
15 | 0.016 µM | 0.0015 µM | 0.0011 µM | CC(=O)c1c(C)nc2c(-c3cnc(NCc4c(F)ccc5c4CCO5)n4cnnc34)cc(F)cn12 [1-(6-fluoro-8-(5-(((5-fluoro-2,3-dihydrobenzofuran-4-yl)methyl)amino)-[1,2,4]triazolo[4,3-c]pyrimidin-8-yl)-2-methylimidazo[1,2-a]pyridin-3-yl)ethan-1-one]
16 | 0.0049 µM | 0.0136 µM | 0.0243 µM | CC1=CS(=O)(=O)c2ccc(-c3cnc(NCc4c(F)ccc5c4[C@H]4C[C@H]4O5)n4cnnc34)cc21 [5-(5-((((1aR,6bR)-5-fluoro-1a,6b-dihydro-1H-cyclopropa[b]benzofuran-6-yl)methyl)amino)-[1,2,4]triazolo[4,3-c]pyrimidin-8-yl)-3-methylbenzo[b]thiophene 1,1-dioxide]
17 | 0.0099 µM | 0.0016 µM | 0.0024 µM | Cc1ccc(-c2cnc(NCc3c(F)ccc4c3CCO4)n3cnnc23)c2ncc(CCO)n12 [2-(8-(5-(((5-fluoro-2,3-dihydrobenzofuran-4-yl)methyl)amino)-[1,2,4]triazolo[4,3-c]pyrimidin-8-yl)-5-methylimidazo[1,2-a]pyridin-3-yl)ethan-1-ol]
18 | 0.015 µM | 0.0056 µM | 0.0165 µM | Fc1ccc2c(c1CNc1ncc(-c3ccn4ccnc4c3)c3nncn13)CCO2 [N-((5-fluoro-2,3-dihydrobenzofuran-4-yl)methyl)-8-(imidazo[1,2-a]pyridin-7-yl)-[1,2,4]triazolo[4,3-c]pyrimidin-5-amine]
19 | 0.0025 µM | 0.0009 µM | 0.0009 µM | CCc1cnc2c(-c3cnc(NCc4c(F)ccc5c4CCO5)n4cnnc34)cccn12 [8-(3-ethylimidazo[1,2-a]pyridin-8-yl)-N-((5-fluoro-2,3-dihydrobenzofuran-4-yl)methyl)-[1,2,4]triazolo[4,3-c]pyrimidin-5-amine]
20 | 0.0028 µM | 0.0007 µM | 0.001 µM | Cc1ccc(-c2cnc(NCc3c(F)ccc4c3CCO4)n3cnnc23)c2ncc(C(C)C)n12 [N-((5-fluoro-2,3-dihydrobenzofuran-4-yl)methyl)-8-(3-isopropyl-5-methylimidazo[1,2-a]pyridin-8-yl)-[1,2,4]triazolo[4,3-c]pyrimidin-5-amine]
21 | 0.0045 µM | 0.0073 µM | 0.0077 µM | Fc1ccc2c(c1CNc1ncc(-c3ccn4ncnc4c3)c3nncn13)[C@H]1C[C@H]1O2 [8-([1,2,4]triazolo[1,5-a]pyridin-7-yl)-N-(((1aR,6bR)-5-fluoro-1a,6b-dihydro-1H-cyclopropa[b]benzofuran-6-yl)methyl)-[1,2,4]triazolo[4,3-c]pyrimidin-5-amine]
